The source of these data is patent US7772252B2, “Heterocyclic substituted carbonyl derivatives and their use as dopamine D3 receptor ligands” (Aventis Pharmaceuticals Inc., priority 2001, dated 2010).

T1 sequence (P35462 whole entry): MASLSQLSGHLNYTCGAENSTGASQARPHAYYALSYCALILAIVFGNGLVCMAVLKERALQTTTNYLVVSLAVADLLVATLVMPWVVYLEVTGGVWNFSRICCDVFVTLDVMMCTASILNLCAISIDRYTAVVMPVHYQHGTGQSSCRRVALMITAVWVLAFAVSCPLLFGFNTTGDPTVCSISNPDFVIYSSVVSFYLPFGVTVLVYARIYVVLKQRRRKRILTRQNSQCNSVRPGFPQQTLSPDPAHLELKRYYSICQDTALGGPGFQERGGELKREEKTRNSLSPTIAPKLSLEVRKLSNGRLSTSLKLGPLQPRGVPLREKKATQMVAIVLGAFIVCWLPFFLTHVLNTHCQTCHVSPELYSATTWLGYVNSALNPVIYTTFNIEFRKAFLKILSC

This test concerns the target T1, cloned human dopamine D3 receptors (Homo sapiens, UniProt P35462).
T1 construct: expressed in transfected cells; membrane homogenate
In words: [N-Methyl-3H]Spiroperidol binding to cloned human dopamine D3 receptors. The following applies: read-out: D3 Ki. An outline of the steps: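 Radioligand displacement with [N-methyl-3H]spiroperidol was run on membranes from a high-expressing CHO clone carrying human D3. Membranes were prepared in 10% DMSO and stored at −80° C.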
Turning to `C[C@H]1CC[C@H](NC(=O)[C@@H]2C[C@H]2CN2CCC(c3noc4ccc(C(F)(F)F)cc34)CC2)CC1` [compound 834012, 2R-[4-(5-Trifluoromethyl-benzo[d]isoxazol-3-yl)-piperidin-1-ylmethyl]-cyclopropane-1R-carboxylic acid trans-(4-methyl-cyclohexyl)-amide], the Ki was 0.241 nM.
Consider `O=C(NC1CCN(c2ncccc2C(F)(F)F)C1)C1CC1CN1CCC(c2noc3ccsc23)CC1` (racemic) [compound 832199], for which the Ki amounted to 18.7 nM.
As to `O=C(NC1CCN(Cc2ccc(Cl)c(Cl)c2)CC1)[C@@H]1C[C@H]1CN1CCC(c2noc3ccsc23)CC1` [compound 832731], the inhibition constant (Ki) came out at 0.699 nM.
With `COc1cccc2c(C3CCN(C[C@@H]4C[C@H]4C(=O)NCC45CC6CC(CC(C6)C4)C5)CC3)nn(C)c12` [compound 834057], the inhibitory constant (Ki) turned out to be 89.4 nM.
To `Cn1nc(C2CCN(C[C@@H]3C[C@H]3C(=O)NCC3CCNCC3)CC2)c2ccc(C(F)(F)F)cc21` [A002436288A] belongs 106 nM; to `O=C([C@@H]1C[C@H]1CN1CCC(c2noc3ccc(C(F)(F)F)cc23)CC1)N1CCC(Cn2ccnc2)CC1` [A002200836], 1.51 nM; to `O=C(NCCc1cccc(F)c1)[C@@H]1C[C@H]1CN1CCC(c2noc3ccsc23)CC1` [compound 832726], 7.05 nM.
`O=C(NCCCn1cccc1)[C@@H]1C[C@H]1CN1CCC(c2noc3ccsc23)CC1` [compound 831376]: the Ki is 40.3 nM.
With `O=C(NCCC1=CCCCC1)[C@@H]1C[C@H]1CN1CCC(c2noc3ccsc23)CC1` [compound 831215], the Ki stood at 5.92 nM.
With `C=CCN1CCN(C(=O)[C@@H]2C[C@H]2CN2CCN(c3csc4cc(C(F)(F)F)ccc34)CC2)CC1` [compound 832834], the inhibitory constant (Ki) came to 12.2 nM.
Consider `COc1ccc2c(c1)c(N1CCN(C[C@@H]3C[C@H]3C(=O)NCCCn3cnc4ccccc43)CC1)nn2C` [A002243383], for which the inhibition constant Ki was determined as 25.1 nM.
In the case of `CN1CCC(N(C)C(=O)[C@@H]2C[C@H]2CN2CCN(c3csc4cc(C(F)(F)F)ccc34)CC2)CC1` [compound 832577], the Ki is 1.85 nM.
Consider `O=C(NCCCn1cnc2ccccc21)[C@@H]1C[C@H]1CN1CCN(c2csc3cc(C(F)(F)F)ccc23)CC1` [A002243384], for which the Ki stood at 133 nM.
To `O=C(NCCNC(=O)C1CC1CN1CCC(c2noc3ccsc23)CC1)OCc1ccccc1` (racemic) [compound 831649] belongs 173 nM; to `O=C([C@@H]1C[C@H]1CN1CCN(c2csc3cc(C(F)(F)F)ccc23)CC1)N1CCCC(CN2CCCCC2)C1` (mixture of isomers) [A002437357], 14 nM.
Turning to `Cn1nc(N2CCN(C[C@@H]3C[C@H]3C(=O)N[C@H]3CC[C@H](O)CC3)CC2)c2sccc21` [8319560A], the Ki turned out to be 5.91 nM.
Turning to `O=C(NCCCn1ccnc1)[C@@H]1C[C@H]1CN1CCC(c2noc3cc(C(F)(F)F)ccc23)CC1` [A002287765, 2R-[4-(6-Trifluoromethyl-benzo[d]isoxazol-3-yl)-piperidin-1-ylmethyl]-1R-cycloproanecarboxylic acid (3-imidazol-1-yl-propyl)-amide], the Ki was found to be 0.011 nM.
To `CCCc1cc(N2CCN(CC3CC3C(=O)NC3CCC(CC)CC3)CC2)nc(C(C)(C)C)n1` (racemic) [compound 817274] belongs 4.49 nM; to `O=C(N[C@H]1CC[C@H](O)CC1)[C@@H]1C[C@H]1CN1CCN(c2nn(-c3ccc(OC(F)(F)F)cc3)c3ccsc23)CC1` [compound 833855], 12.4 nM.
Consider `O=C([C@H](O)CCN1CCC(c2noc3ccsc23)CC1)N1CCCCC1` [compound 830558], for which the inhibition constant (Ki) is 34.2 nM.
To `O=C(NCCCc1ccn(S(=O)(=O)c2ccccc2)c1)C1CC1CN1CCC(c2noc3ccsc23)CC1` (racemic) [compound 832185] belongs 7.87 nM; to `COCCN1CCN(C(=O)[C@@H]2C[C@H]2CN2CCN(c3csc4cc(C(F)(F)F)ccc34)CC2)CC1` [compound 832835], 18.1 nM; to `O=C([C@@H]1C[C@H]1CN1CCC(c2csc3cc(C(F)(F)F)ccc23)CC1)N1CCC[C@@H](Cn2ccnc2)C1` [A002609935, (3S-Imidazol-1-ylmethyl-piperidin-1-yl)-{2R-[4-(6-trifluoromethyl-benzo[b]thiophen-3-yl)-piperidin-1-ylmethyl]-1R-cyclopropyl}-methanone], 0.142 nM.
Turning to `C[C@H]1CC[C@H](NC(=O)[C@@H]2C[C@H]2CN2CCC(c3nsc4cc(Br)ccc34)CC2)CC1` [compound 833703], the Ki was found to be 1.92 nM.
Regarding `O=C(NCc1ccc(-c2csnn2)cc1)[C@@H]1C[C@H]1CN1CCN(c2csc3cc(C(F)(F)F)ccc23)CC1` [compound 833515], the inhibitory constant (Ki) worked out at 48.3 nM.
Take `O=C(N[C@H]1CC[C@H](O)CC1)[C@@H]1C[C@H]1CN1CCN(c2nn(-c3ccccc3)c3ccsc23)CC1` [compound 832816]: the Ki was 2.57 nM.
`COc1c(F)ccc2c(C3CCN(C[C@@H]4C[C@H]4C(=O)NCCCc4ccccc4)CC3)noc12` [compound 831310]: the Ki worked out at 103 nM.
As to `O=C(C1CC1CN1CCC(c2noc3ccsc23)CC1)N1CCC(c2cc(-c3ccco3)[nH]n2)CC1` (racemic) [compound 831704], the Ki was 47.5 nM.
Regarding `CC1CCN(CCCNC(=O)[C@@H]2C[C@H]2CN2CCN(c3nn(-c4ccc(OC(F)(F)F)cc4)c4ccsc34)CC2)CC1` [compound 834207], the inhibitory constant (Ki) was 71.4 nM.
Regarding `COc1ccc2c(c1)c(N1CCN(C[C@@H]3C[C@H]3C(=O)NCCCn3ccnc3)CC1)nn2C` [compound 831808], the inhibition constant Ki worked out at 3.84 nM.
In the case of `O=C(NC1CCN(Cc2ccncc2)CC1)C1CC1CN1CCC(c2noc3ccsc23)CC1` (racemic) [compound 832393], the inhibition constant Ki stood at 8.44 nM.
Turning to `O=C([C@@H]1C[C@H]1CN1CCN(c2csc3cc(F)ccc23)CC1)N1CCC(O)CC1` [compound 828716], the Ki amounted to 2.38 nM.
Regarding `O=C(N[C@H]1CC[C@H](O)CC1)C1(CCN2CCC(c3noc4ccsc34)CC2)CC1` [compound 832317], the Ki is 943 nM.
As for `O=C([C@@H]1C[C@H]1CN1CCC(c2noc3ccsc23)CC1)N1CCN(CCCc2ccccc2)CC1` [compound 833131], the Ki turned out to be 16.8 nM.
`O=C(NCCCn1ccnc1)C1(CCN2CCC(c3noc4ccsc34)CC2)CC1` [compound 832171]: the Ki was found to be 4.9 nM.
Take `O=C(NCCCN1CCOCC1)C1(CCN2CCN(c3csc4cc(C(F)(F)F)ccc34)CC2)CC1` [compound 832518]: the Ki was 98.2 nM.
Regarding `CC(C)(C)OC(=O)N1CCN(CCNC(=O)[C@@H]2C[C@H]2CN2CCN(c3csc4cc(C(F)(F)F)ccc34)CC2)CC1` [compound 833277], the Ki was found to be 16.7 nM.
Turning to `O=C(NCCCN1CCCCC1)[C@@H]1C[C@H]1CN1CCN(c2csc3ncccc23)CC1` [A002437094], the Ki worked out at 91.9 nM.
On to `O=C(NC1CCN(Cc2cc(F)cc(F)c2)CC1)C1CC1CN1CCC(c2noc3ccsc23)CC1` (racemic) [compound 832343], for which the inhibition constant Ki was determined as 0.718 nM.
Take `Cc1cn(CCCNC(=O)[C@@H]2C[C@H]2CN2CCC(c3noc4ccsc34)CC2)c(C)n1` [compound 831938]: the Ki turned out to be 33 nM.
Take `O=C(NCCCc1cccnc1)[C@@H]1C[C@H]1CN1CCC(c2noc3ccsc23)CC1` [compound 831195]: the Ki was 1.84 nM.
With `O=C(NCC1CCNCC1)[C@@H]1C[C@H]1CN1CCC(c2noc3c(C(F)(F)F)cccc23)CC1` [A002440437A], the inhibitory constant (Ki) amounted to 41.2 nM.
Turning to `O=C(NCCS(=O)(=O)c1cccc2c(Cl)cccc12)C1CC1CN1CCC(c2noc3ccsc23)CC1` (racemic) [compound 831689], the inhibition constant Ki stood at 16.4 nM.
Consider `Cc1ccc(CCNC(=O)C2CC2CN2CCC(c3noc4ccsc34)CC2)cc1` (racemic) [compound 831803], for which the Ki amounted to 7.44 nM.
For `CC1CCC(NC(=O)C2CC2CN2CCCN(c3noc4ccsc34)CC2)CC1` (racemic) [compound 830126], the Ki was 23.8 nM.
Consider `O=C(NCCCc1ccccc1)[C@@H]1C[C@H]1CN1CCN(c2csc3cc(C(F)(F)F)ccc23)CC1` [compound 831270], for which the Ki worked out at 17.8 nM.
In the case of `O=C(NC1CCN(Cc2ccc(Cl)c(Cl)c2)CC1)[C@@H]1C[C@H]1CN1CCC(c2cc3ccccc3s2)CC1` [compound 832716], the Ki came to 7.54 nM.
For the compound `C[C@H]1CC[C@H](NC(=O)[C@@H]2C[C@H]2CN2CCC(c3nn(-c4ccccc4)c4ccsc34)CC2)CC1` [compound 833909], the Ki was found to be 1.86 nM.
Consider `O=C(NCCc1cccnc1)C1CC1CN1CCC(c2noc3ccsc23)CC1` (racemic) [compound 831456], for which the inhibitory constant (Ki) came to 6.21 nM.
As to `O=C(NCCS(=O)(=O)c1ccccc1)C1CC1CN1CCC(c2noc3ccsc23)CC1` (racemic) [compound 831736], the Ki stood at 291 nM.
Turning to `C[C@H]1CC[C@H](NC(=O)C2(CCN3CCC(c4noc5ccsc45)CC3)CC2)CC1` [832241A], the inhibition constant (Ki) came out at 51.8 nM.
On to `O=C(C1CC1CN1CCC(c2noc3ccsc23)CC1)N1CCN(S(=O)(=O)Cc2ccccc2)CC1` (racemic) [compound 831837], for which the Ki was 491 nM.
Take `O=C(C1CC1CN1CCC(c2noc3ccsc23)CC1)N1CCC(CCN2CCCC2)CC1` (racemic) [compound 832198]: the Ki amounted to 5.81 nM.
In the case of `O=C(NCCN1CCNC1=O)[C@@H]1C[C@H]1CN1CCC(c2noc3ccsc23)CC1` [compound 832529], the Ki was 146 nM.
Take `Cn1nc(N2CCN(C[C@@H]3C[C@H]3C(=O)NCCCn3ccnc3)CC2)c2sccc21` [compound 831830]: the inhibition constant Ki turned out to be 0.76 nM.
To `COc1c(F)ccc2c(C3CCN(C[C@H]4C[C@@H]4C(=O)N[C@H]4CC[C@H](C)CC4)CC3)noc12` [compound 831360] belongs 17.1 nM; to `O=C(NCCCN1CCOCC1)[C@@H]1C[C@H]1CN1CCN(c2nn(-c3ccc(C(F)(F)F)cc3)c3ccsc23)CC1` [compound 834205], 90.5 nM; to `O=C([C@@H]1C[C@H]1CN1CCC(c2noc3ccsc23)CC1)N1CCN(Cc2ccc(F)cc2)CC1` [compound 833132], 108 nM.
As for `O=C([C@@H]1C[C@H]1CN1CCC(c2noc3ccsc23)CC1)N1CCN(C/C=C/c2ccccc2)CC1` [compound 829467], the Ki was 9.01 nM.

As usually defined, the Ki is the equilibrium dissociation constant of an inhibitor or competing ligand from its target.
